Data: US20040029965A1, “Formulations for reducing or eliminating toxicity of enviromental hormones containing ursodeoxycholic acid” (priority 2000, published 2004)

Tests used:
Assay type in all cases: in vivo
C57B1/6J mice [1] = test: Johnsen's score of the testis tissue (level of spermatogenesis)
Experimental: (§1) 2,3,7,8-tetrachlorodibenzo-p-dioxin (TCDD) dissolved in toluene (purity of 95% or more as a result of gas chromatography analysis), manufactured by Chem. Services Inc. in USA, was volatilized with nitrogen to obtain powder. The obtained powder was dissolved in a mixed solvent containing acetone and corn oil with a volume ratio of 1:6. The resulting solution each containing 110, 27.5 and 6.9 μg/kg of TCDD was subcutaneously injected to mice at a volume of 5 ml per body weight. […] The mice were supplied with the feed from 10 days before (pre-administration) to 60 days after administration of TCDD (post-administration).
Upon completion of the experiment for 60 days, the experimental animals were fasted for 24 hours and anesthetized with ether. Then, they were abdominally incised and blood was gathered from abdominal vena cava. They were sacrificed by the release of blood. Liver, kidneys, testes and epididymides were extracted and all the extracted organs were weighed. Only the testes were separately kept and observed under optical and electron microscopes. For biochemical finding test, serum was separated from blood with a centrifuge and the separated serum was analyzed with an automated blood biochemical analyzer, Dimension (Dupont, USA). Blood was put to another blood gathering bottle and then, analyzed with an automated blood cell analyzer, Celldyn (Abbott, USA).
The extracted testes were fixed in 10% neutralized formalin buffer for 24 hours and washed with the flowing water. It was subsequently dehydrated with ethanol and cleared with xylene and then, embedded with paraffin. It was sectioned with microtome (microm is HM 440E) to a thickness of 2-3 μm and then, double stained with hematoxylin and eosin to observe under an optical microscope.
For evaluation of the level of spermatogenesis, Johnsen's score was determined from 10 to 1 based on the presence or absence of principal cells arranged according to maturation of spermatogenesis. The basis of Johnsen's score in testes was the following:
10: Perfect spermatogenesis having many sperms, organization of embryonic epithelial cells with a constant thickness, and opened lumen
9: Despite many sperms, significant separation of embryonic epithelial cells from the basement membrane and disruption thereof, or loss of lumen
8: Presence of 5 to less than 10 sperms in the section
7: Many sperm cells without sperms
6: 5 to less than 10 sperm cells without sperms
5: Several or many spermatocytes without sperms and sperm cells
4: Less than 5 spermatocytes without sperms and sperm cells
3: Presence of only spermatogonia as reproductive cells
2: Presence of only Sertoli cells without any reproductive cells
1: No cells in the section of seminiferous tubules

[2] = tested on: Ovariectomized female B6C3F1 mice; test: Uterus weight changes by bisphenol A (uterine proliferation); settings: UDCA 2 mg/day alone, s.c. for 4 days
Experimental: Ovariectomized female B6C3F1 mice of 5 weeks old, the average weight of which was 18 to 22 g and had been bred in CRJ, were purchased. They were acclimated under the constant breeding conditions, i.e. the constant temperature of 24±1° C., the humidity of 60±10% and the light and darkness cycle of 12 hours, for one week and then, utilized in the experiment. The animals were supplied with solid feed purchased from Purina and supplied with water ad libitum. After acclimation, test materials dissolved in corn oil were subcutaneously injected once a day for 4 days. The test materials used herein, stock solutions of bisphenol A and UDCA were prepared using ethanol. 2 mg of bisphenol A dissolved in 0.2 ml of corn oil was administered to the mice alone or in combination with UDCA once a day. The administration dose of UDCA was 0.2 or 2.0 mg, and corn oil was administered to the solvent control.
The results are expressed as Mean±Standard Deviation values. ANOVA was performed to evaluate the mean distribution of administered groups. In case that the significance was recognized in ANOVA, the Student's t-test was carried out in the levels of p<0.05 and p<0.01.

C57B1/6J mice [3] = test: Effect of UDCA on death (death rate, death time) of mice by a single subcutaneous injection of TCDD
Experimental: Male C57B1/6J mice of 5 weeks old having the average weight of 18-22 g which had been bred in CRJ (Charles River in Japan) were purchased and used in this example as experimental animals. Those mice were acclimated under the constant breeding condition, i.e. the temperature of 24±1° C., the humidity of 60±10% and the light and darkness cycle of 12 hours, for one week and thereafter, utilized in the experiment.
The Experimental animals were supplied with Purina powdered feed (purchased from Hae Eun Trade) and supplied with water ad libitum. All the animals were weighed twice a week during experimentation.
as §1
The results are expressed as Mean±Standard Deviation values. For statistical analysis of the body weight, feed and water uptake, biochemical findings, hematological findings and the weight of organ in an acute toxicity test, verification was performed by one way analysis of variance (ANOVA) in case of equal distribution. In case significance was recognized in ANOVA, the Student's t-test was performed in the levels of p<0.05 and p<0.01.

[4] = TCDD 6.9 μg/kg + UDCA 0.125 wt %
[5] = TCDD 6.9 μg/kg + UDCA 0.25 wt %
[6] = TCDD 110.0 μg/kg + UDCA 0.125 wt %
[7] = TCDD 110.0 μg/kg + UDCA 0.25 wt %
[8] = TCDD 110.0 μg/kg + UDCA 0.5 wt %

## C[C@H](CCC(=O)O)[C@H]1CC[C@H]2[C@@H]3[C@@H](O)C[C@@H]4C[C@H](O)CC[C@]4(C)[C@H]3CC[C@]12C [UDCA, 3α, 7β-dihydroxy-5β-cholanoic acid]
C57B1/6J mice [1]; TCDD 6.9 μg/kg + UDCA 0.125 wt % in feed
  Johnsen's score of the testis tissue: 8.7 ± 0.09
C57B1/6J mice [1]; TCDD 6.9 μg/kg + UDCA 0.250 wt % in feed
  Johnsen's score of the testis tissue: 8.84 ± 0.10
C57B1/6J mice [1]; TCDD 6.9 μg/kg + UDCA 0.500 wt % in feed
  Johnsen's score of the testis tissue: 9.10 ± 0.08
C57B1/6J mice [1]; TCDD 27.5 μg/kg + UDCA 0.125 wt % in feed
  Johnsen's score of the testis tissue: 8.40 ± 0.10
C57B1/6J mice [1]; TCDD 27.5 μg/kg + UDCA 0.250 wt % in feed
  Johnsen's score of the testis tissue: 8.42 ± 0.08
C57B1/6J mice [1]; TCDD 27.5 μg/kg + UDCA 0.500 wt % in feed
  Johnsen's score of the testis tissue: 8.81 ± 0.07
[2]
  Mean weight of uterus ± SD: 6.96 ± 1.34
C57B1/6J mice [3]; [4]
  Death rate: 0%
  No. of dead mice/No. of administered mice: 0/10
C57B1/6J mice [3]; [5]
  Death rate: 0%
  No. of dead mice/No. of administered mice: 0/10
C57B1/6J mice [3]; TCDD 6.9 μg/kg + UDCA 0.5 wt %
  Death rate: 0%
  No. of dead mice/No. of administered mice: 0/10
C57B1/6J mice [3]; TCDD 27.5 μg/kg + UDCA 0.125 wt %
  No. of dead mice/No. of administered mice: 0/10
C57B1/6J mice [3]; TCDD 27.5 μg/kg + UDCA 0.25 wt %
  No. of dead mice/No. of administered mice: 0/10
C57B1/6J mice [3]; TCDD 27.5 μg/kg + UDCA 0.5 wt %
  No. of dead mice/No. of administered mice: 0/10
C57B1/6J mice [3]; [6]
  Death time (Mean ± SD): 33 ± 4 days
  No. of dead mice/No. of administered mice: 10/10
C57B1/6J mice [3]; [7]
  Death rate: 90%
  Death time (Mean ± SD): 34 ± 5 days
  No. of dead mice/No. of administered mice: 9/10
C57B1/6J mice [3]; [8]
  Death rate: 40%
  Death time (Mean ± SD): 51 ± 8 days
  No. of dead mice/No. of administered mice: 4/10

## Clc1cc2c(cc1Cl)Oc1cc(Cl)c(Cl)cc1O2 [TCDD, 2,3,7,8-tetrachlorodibenzo-p-dioxin]
C57B1/6J mice [1]; TCDD 6.9 μg/kg alone, score 10 to 1
  Johnsen's score of the testis tissue: 8.06 ± 0.09
C57B1/6J mice [1]; TCDD 27.5 μg/kg alone, score 10 to 1
  Johnsen's score of the testis tissue: 7.42 ± 0.11
C57B1/6J mice [3]; TCDD 6.9 μg/kg alone
  Death rate: 0%
  No. of dead mice/No. of administered mice: 0/10
C57B1/6J mice [3]; TCDD 27.5 μg/kg alone
  Death rate: 30%
  Death time (Mean ± SD): 55 ± 5 days
  No. of dead mice/No. of administered mice: 3/10
C57B1/6J mice [3]; TCDD 110.0 μg/kg alone
  Death time (Mean ± SD): 35 ± 7 days
  No. of dead mice/No. of administered mice: 10/10
